Data published in patent US20140296257A1, “High-Loading Water-Soluable Carrier-Linked Prodrugs” (Ascendis Pharma A/S, priority 2011, published 2014).

Settings: pH 7.4 buffer, 37° C., released paliperidone plotted against time
Protocol: Sample was incubated at 37° C. At various time points aliquots were analyzed by UPLC and the amount of released paliperidone was plotted against time. […] Curve fitting software was used to determine half life time of drug release from the respective conjugate.

In the case of “4-arm PEG 20 kDa-octapaliperidone [Conjugate 5]”, the Drug release kinetics is reported as “first order kinetics”.
